Patent EP0423524A2, “Propiophenone derivatives and their preparation and pharmaceutical use” (MARUHO Co., Ltd., priority 1989, dated 1991)
Where a name gives a salt, the structure may show the parent alone.

Tests used:
Type in all cases: in vivo
Male Slc-ddy mice [1] = assay: Anti-strychnine effect (time from tonic convulsions to death after subcutaneous strychnine nitrate); conditions: for ED50: Mus musculus, po, 0.5 h, read-out: ED₅₀ values for the anti-strychnine effect; for anti-strychnine effect compared with eperisone hydrochloride / Anti-strychnine effect Effect: 100 mg/10 ml/kg oral; for Anti-strychnine effect Effect: 30 min, compared with eperisone hydrochloride
Procedure: Strychnine is known to enhance reflex stimulation, among others, of spinal cord to induce convulsions. If this effect of strychnine can be suppressed by administration of any of the above-mentioned compounds, this compound is expected to have a central muscle relaxation effect.
Male Slc-ddy mice of 25 - 30 g (5 weeks old) were used in groups of 7 - 10.
The test compounds (100 mg/10 ml/kg) were orally administered to the mice, and after 30 min, 1.5 mg/10 ml/kg of strychnine nitrate was administered subcutaneously, and the time was measured from the occurence of tonic convulsions to the death of the animals. Cases in which this time was extended to 6 min or more were judged as corresponding to an anti-strychnine effect, and with the number of such cases as index, comparison was made with the reference compound (eperisone hydrochloride). […] The ED₅₀ values (95% confidence limit) for the anti-strychnine effect were determined by the Litchfield-Wilcoxon method and are shown in Table 3.

Male Slc-ddy mice [2] = assay: Inhibitory effect on the motor coordination (rotating rod test); conditions: for Inhibitory effect on motor coordination Effect: 300 - 600 mg/10 ml/kg oral, 30 min, compared with eperisone hydrochloride; for ED50: Mus musculus, 0.5 h, read-out: ED₅₀ values for the inhibitory effect on the motor coordination
Procedure: Male Slc-ddy mice of 20 - 25 g (5 weeks old) were used in groups of 7 - 10. The test compounds were used dissolved or suspended in 0.5 % CMC or 0.5 % Tween 80 solution. Each test compound (300 - 600 mg/10 ml/kg) was orally administered to the mice, and after 30 min the mice were put on a 3-cm diameter rod rotating at a speed of 10 min⁻¹ in a direction opposite to the rotation direction, and the time of staying on it was measured to a maximum of 180 s. Those falling off of the rotating rod within 60 s were judged as having an inhibitory effect on the motor coordination and, with the number of cases as index, comparison was made with the reference compound (eperisone hydrochloride).
The mice were trained in advance to be able to stay on the rotating rod for more than 300 s, and those capable of staying on it for more than 250 s immediately before testing were used.

Acute toxicity test = conditions: mouse, in vivo, po, mice, observation for 7 days, Litchfield-Wilcoxon, 95% confidence limit in brackets, read-out: LD₅₀ values (50% of lethal dose)
Procedure: (§1) Male ddy mice of 20-30 g were used as test animals in groups of 5-10. The test compounds were dissolved or suspended in 0.5 % Tween 80 aqueous solution, and orally administered to the mice. Observation was made for 7 days after administration. The LD₅₀ values (50% of lethal dose) (95% confidence limit) were determined by the Litchfield-Wilconxon method, and are shown in Table 4.

Male Slc-ddy mice [3] = assay: Anti-nicotinic effect (survival after intravenous nicotine bitartrate); conditions: for anti-nicotinic effect compared with eperisone hydrochloride / Anti-nicotinic effect Effect: 100 mg/10 ml/kg oral; for Anti-nicotinic effect Effect: 30 min, compared with eperisone hydrochloride; for ED50: Mus musculus, 0.5 h, oral, nicotine bitartrate 3 mg/10 ml/kg i.v. after 30 min, Litchfield-Wilcoxon, 95 % confidence limit in brackets, read-out: ED₅₀ values for the anti-nicotinic effect
Procedure: Experimental Method of Male Slc-ddy mice/30 - 35 g (6 weeks old) were used as test animals in groups of 7 - 10. The test compounds (100 mg/10 ml/kg) were orally administered to the mice, and after 30 min, nicotine bitartrate (3 mg/10 ml/kg) was administered intravenously, and the number of animals killed due to tonic convulsion was counted. The surviving animals were judged as having an anti-nicotinic effect, and with the number thereof as index the comparison concerning the anti-nicotinic effect was made with the reference compound (eperisone hydrochloride).

Male ddy mice = assay: Acute toxicity test; conditions: oral
Procedure: as §1

[4] = oral, rotating rod 30 min after administration, falling off within 60 s counted as positive, 95% confidence limit in brackets

Row | Compound | ED50 (Male Slc-ddy mice [1]) [mg/kg] | anti-strychnine effect compared with eperisone hydrochloride (Male Slc-ddy mice [1]; mice) | Anti-strychnine effect Effect (Male Slc-ddy mice [1]; mice) | Inhibitory effect on motor coordination Effect (Male Slc-ddy mice [2]) | ED50 (Male Slc-ddy mice [2]; [4]) [mg/kg] | inhibitory effect on the motor coordination compared with eperisone hydrochloride (Male Slc-ddy mice [2]; oral) | LD50 at 168 h (Acute toxicity test) [mg/kg] | anti-nicotinic effect compared with eperisone hydrochloride (Male Slc-ddy mice [3]) | Anti-nicotinic effect Effect (Male Slc-ddy mice [3]) | ED50 (Male Slc-ddy mice [3]) [mg/kg] | ED₅₀ values for the anti-strychnine effect (Male Slc-ddy mice [1]; mice, oral, strychnine nitrate 1.5 mg/10 ml/kg s.c. after 30 min, Litchfield-Wilcoxon, 95% confidence limit in brackets) | ED₅₀ values for the inhibitory effect on the motor coordination (Male Slc-ddy mice [2]; [4]) | minimum lethal dose relative to the minimum amount necessary for developing a pharmacological effect (safety margin) (Male ddy mice) | LD₅₀ values (50% of lethal dose) (Male ddy mice; observation for 7 days, Litchfield-Wilcoxon, 95% confidence limit in brackets, 10080 min)
1 | CCc1ccc(C2(C(C)Cn3ccnc3)OCCO2)cc1 (stereo not drawn) [Compound 23] | 155 | stronger anti-strychnine effect than eperisone hydrochloride | ○ | ◎ | 210 | stronger inhibitory effect on the motor coordination than eperisone hydrochloride | 415 | stronger anti-nicotinic effect than eperisone hydrochloride | ◎ | 46 |  |  |  | 
2 | CCc1ccc(C(=O)C(C)Cn2ccnc2)cc1 (stereo not drawn) [Compound 2, 1-(4-ethylphenyl)-3-(1H-imidazol-1-yl)-2-methylpropan-1-one] | 135 | stronger anti-strychnine effect than eperisone hydrochloride | ◎ | 0 | 200 | stronger inhibitory effect on the motor coordination than eperisone hydrochloride | 218 | stronger anti-nicotinic effect than eperisone hydrochloride | ◎ | 26 |  |  |  | 
3 | Cc1ccc(C(=O)C(C)Cn2ccnc2)cc1C (stereo not drawn) [Compound 14, 3-(1H-imidazol-1-yl)-2-methyl-1-(3,4-dimethylphenyl)-propan-1-one] | 33 | stronger anti-strychnine effect than eperisone hydrochloride | ◎ | 0 | 100 | stronger inhibitory effect on the motor coordination than eperisone hydrochloride | 209 | stronger anti-nicotinic effect than eperisone hydrochloride | ◎ | 32 |  |  |  | 
4 | CCc1ccc(C(=O)C(C)CN2CCCCC2)cc1 (stereo not drawn) [Eperisone hydrochloride, reference compound] |  |  |  |  |  |  | 303 |  |  | 140 | No effect detected | positive cases not in excess of 50% | the minimum lethal dose is close to the minimum amount necessary for developing a pharmacological effect | 
5 | CCc1ccc(C(=O)C(C)Cn2ccnc2)cc1 (stereo not drawn) [Hydrochloride of compound 2] |  |  |  |  |  |  |  |  |  |  |  |  |  | 225 mg/kg (182-278)
